Test results from PMC6009896, “Dual targeting of cancer-related human matrix metalloproteinases and carbonic anhydrases by chiral N-(biarylsulfonyl)-phosphonic acids” (Journal of Enzyme Inhibition and Medicinal Chemistry, 2017).
Like-named read-outs stand apart in the source and are kept apart here.

Columns and labels:
[1] = target: Human CA I (Homo sapiens, UniProt P00915); experiment: CA catalyzed CO2 hydration stopped-flow assay, CA I
Description: (§1) An applied photophysics stopped-flow instrument has been used for assaying the CA catalyzed CO2 hydration activity. […] The CO2 concentrations ranged from 1.7 to 17 mM for the determination of the kinetic parameters and inhibition constants. […] The uncatalyzed rates were determined in the same manner and subtracted from the total observed rates. Stock solutions of inhibitor (10–50 mM) were prepared in distilled-deionized water and dilutions up to 0.1 nM were done thereafter with the assay buffer.

[2] = target: Human CA II (Homo sapiens, UniProt P00918); experiment: CA catalyzed CO2 hydration stopped-flow assay, CA II; conditions: for decrease in activity on CA II compared to the standard AAZ: versus AAZ
Description: as §1

[3] = test system: MMP-2; set-up: method as in PMID 17088065, PMID 16451058, PMID 19204958; conditions: Table 2; existing data ref 16, 17, 24; cited from earlier work
[4] = test system: MMP-8; set-up: method as in PMID 17088065, PMID 16451058, PMID 19204958; conditions: Table 2; existing data ref 16, 17, 24; cited from earlier work
[5] = target: Human CA IX (Homo sapiens, UniProt Q16790); experiment: CA catalyzed CO2 hydration stopped-flow assay, CA IX
Description: as §1

[6] = target: Human CA XII (Homo sapiens, UniProt O43570); experiment: CA catalyzed CO2 hydration stopped-flow assay, CA XII
Sequence of Human CA XII (O43570 25-354): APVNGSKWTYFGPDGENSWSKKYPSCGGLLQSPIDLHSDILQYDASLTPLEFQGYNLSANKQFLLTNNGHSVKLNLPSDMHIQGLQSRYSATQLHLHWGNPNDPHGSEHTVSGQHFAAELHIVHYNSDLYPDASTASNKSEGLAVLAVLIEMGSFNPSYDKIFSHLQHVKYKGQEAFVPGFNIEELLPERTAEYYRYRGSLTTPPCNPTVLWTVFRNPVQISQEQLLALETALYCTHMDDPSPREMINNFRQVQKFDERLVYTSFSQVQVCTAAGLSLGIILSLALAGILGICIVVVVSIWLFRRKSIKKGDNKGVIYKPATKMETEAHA
Description: as §1

[7] = target: Human CA XIV (Homo sapiens, UniProt Q9ULX7); experiment: CA catalyzed CO2 hydration stopped-flow assay, CA XIV
Sequence of Human CA XIV (Q9ULX7 16-337): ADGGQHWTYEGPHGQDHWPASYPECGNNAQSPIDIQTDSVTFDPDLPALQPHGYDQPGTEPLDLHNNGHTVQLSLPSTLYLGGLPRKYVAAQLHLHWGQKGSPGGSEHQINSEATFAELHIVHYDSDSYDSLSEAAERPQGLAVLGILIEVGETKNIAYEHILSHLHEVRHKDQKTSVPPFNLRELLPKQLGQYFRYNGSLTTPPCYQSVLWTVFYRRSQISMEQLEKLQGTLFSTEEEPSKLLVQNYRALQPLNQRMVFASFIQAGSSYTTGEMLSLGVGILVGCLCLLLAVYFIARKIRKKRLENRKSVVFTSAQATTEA
Description: as §1

[8] = read-out: IC50 CA I, Table 1, recombinant human CA I, stopped-flow CO2 hydration, 15 min preincubation
[9] = read-out: IC50 CA II, Table 1, human CA II, stopped-flow CO2 hydration, 15 min preincubation
[10] = IC50 CA II, Table 1, human CA II, stopped-flow CO2 hydration, 15 min preincubation
[11] = read-out: IC50 CA I, Table 2, recombinant human CA I, stopped-flow CO2 hydration
[12] = read-out: IC50 CA II, Table 2, recombinant human CA II, stopped-flow CO2 hydration
[13] = read-out: IC50 CA IX, Table 2, recombinant human CA IX, stopped-flow CO2 hydration
[14] = read-out: IC50 CA XII, Table 2, recombinant human CA XII, stopped-flow CO2 hydration
[15] = read-out: IC50 CA XIV, Table 2, recombinant human CA XIV, stopped-flow CO2 hydration

Sequence of Human CA I (P00915 whole entry): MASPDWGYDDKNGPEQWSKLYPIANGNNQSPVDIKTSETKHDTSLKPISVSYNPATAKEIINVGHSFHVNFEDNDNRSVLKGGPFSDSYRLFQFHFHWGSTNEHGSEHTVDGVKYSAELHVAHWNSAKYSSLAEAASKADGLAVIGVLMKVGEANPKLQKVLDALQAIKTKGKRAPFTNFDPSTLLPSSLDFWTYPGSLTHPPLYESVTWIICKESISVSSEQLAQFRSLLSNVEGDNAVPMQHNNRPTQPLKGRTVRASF

O=P(O)(O)CS(=O)(=O)c1ccc(-c2ccc(C(F)(F)F)cc2)cc1 [Compound 5]
IC50 [1, 8]: > 10 µM | IC50 [2, 9]: > 10 µM

O=P(O)(O)CS(=O)(=O)c1ccc(-c2cccs2)cc1 [Compound 7]
IC50 [1, 8]: > 10 µM | IC50 [2, 9]: > 10 µM

O=P(O)(O)CS(=O)(=O)c1ccc(-c2ccccc2)cc1 [Compound 1]
IC50 [1, 8]: > 10 µM | IC50 [2, 9]: > 10 µM

COc1ccc(-c2ccc(S(=O)(=O)CP(=O)(O)O)cc2)cc1 [Compound 4]
IC50 [1, 8]: > 10 µM | IC50 [2, 9]: > 10 µM

O=P(O)(O)CS(=O)(=O)c1ccc(-c2cccc(Cl)c2)cc1 [Compound 6]
IC50 [1, 8]: > 10 µM | IC50 [2, 9]: > 10 µM

Cc1cccc(-c2ccc(S(=O)(=O)N[C@@H](C(C)C)P(=O)(O)O)cc2)c1 [(R)-13, (R)-1-[3′-methyl-biphenyl-4-sulfonylamino]-2-methylpropyl phosphonic acid]
IC50 [1]: > 10 µM | IC50 [2, 10]: > 10 µM

O=C(CS(=O)(=O)c1ccc(-c2ccccc2)cc1)NO [Compound 3]
IC50 [3]: 0.006 µM | IC50 [4]: 0.024 µM | IC50 ([1]; read-out: IC50 CA I, rounded value): 8.3 µM | IC50 [1, 8]: 8.3 µM | IC50 [1, 11]: 8.3 µM | decrease in activity on CA II compared to the standard AAZ [2]: ~100 fold | IC50 [2, 9]: 3.66 µM | IC50 [2, 12]: 3.66 µM | IC50 ([5]; read-out: IC50 CA IX, rounded value): 0.5 µM | IC50 [5, 13]: 0.527 µM | IC50 [6, 14]: 8.86 µM | IC50 [7, 15]: 8.53 µM

COc1ccc(Oc2ccc(S(=O)(=O)CP(=O)(O)O)cc2)cc1 [Compound 8]
IC50 [1, 8]: > 10 µM | IC50 [2, 9]: > 10 µM

CC(C)(P(=O)(O)O)S(=O)(=O)c1ccc(-c2ccccc2)cc1 [Compound 11]
IC50 [1, 8]: > 10 µM | IC50 [2, 9]: > 10 µM

Cc1ccc(-c2ccc(S(=O)(=O)N[C@@H](C(C)C)P(=O)(O)O)cc2)cc1 [(R)-12, (R)-N-(4′-methylbiphenylsulfonyl)-phosphovaline]
IC50 [3]: 0.0023 µM | IC50 [4]: 0.0004 µM | IC50 [1, 8]: > 10 µM | IC50 [1, 11]: > 10 µM | decrease in activity on CA II compared to the standard AAZ [2]: ~100 fold | IC50 [2, 9]: 4.14 µM | IC50 ([2]; read-out: IC50 CA II, Table 2, CA II from Sigma): 4.14 µM | IC50 [5, 13]: 0.093 µM | decrease in potency on CA XII in comparison to CA IX ([6]; CA XII versus CA IX): 4 fold | IC50 ([6]; read-out: IC50 CA XII, rounded value): 0.47 µM | IC50 [6, 14]: 0.475 µM | decrease in potency on CA XIV in comparison to CA IX ([7]; CA XIV versus CA IX): 4 fold | IC50 ([7]; read-out: IC50 CA XIV, rounded value): 0.37 µM | IC50 [7, 15]: 0.369 µM

COc1ccc(-c2ccc(S(=O)(=O)N[C@@H](C(C)C)P(=O)(O)O)cc2)cc1 [(R)-15, (R)-N-(4′-methoxybiphenylsulfonyl)-phosphovaline]
IC50 [3]: 0.0015 µM | IC50 [4]: 0.0014 µM | IC50 [1, 8]: > 10 µM | IC50 [1, 11]: > 10 µM | decrease in activity on CA II compared to the standard AAZ [2]: ~100 fold | IC50 [2, 9]: 3.78 µM | IC50 [2, 12]: 3.78 µM | IC50 [5, 13]: 0.084 µM | IC50 [6, 14]: 6.22 µM | IC50 [7, 15]: 1.52 µM

COc1ccc(-c2ccc(S(=O)(=O)C(Cc3ccccc3)P(=O)(O)O)cc2)cc1 (stereo not drawn) [Compound 10, 1–(4′-methoxybiphenyl-4-sulfonyl)-2-phenylethylphosphonic acid]
IC50 [3]: 8.2 µM | IC50 [1]: > 10 µM | IC50 [1, 11]: > 10 µM | IC50 [2, 10]: > 10 µM | IC50 ([2]; IC50 CA II, Table 2, recombinant human CA II, stopped-flow CO2 hydration): 21.1 µM | IC50 [5]: 0.837 µM | IC50 [6]: 8.48 µM | IC50 [7]: 7.47 µM

CC(C)CC(P(=O)(O)O)S(=O)(=O)c1ccc(-c2ccccc2)cc1 (racemic) [Compound 9]
IC50 [1, 8]: > 10 µM | IC50 [2, 9]: > 10 µM

O=C(O)CS(=O)(=O)c1ccc(-c2ccccc2)cc1 [Compound 2]
inhibitory activity on CA I (in words) [1]: completely devoid of activity | IC50 [1, 8]: > 10 µM | inhibitory activity on CA II (in words) [2]: completely devoid of activity | IC50 [2, 9]: > 10 µM
